The target of the assay is T1, F508delCFTR (Homo sapiens, UniProt P13569, DEL508-508).
T1 construct: expressed in transfected cells; host or cells: CFBE41o- (human lung derived epithelial cell line), doxycycline-inducible expression
Kind of assay: Cell Surface Expression-Horse Radish Peroxidase (CSE-HRP) assay. Format: cell-based. The conditions noted are these: CFBE41o-F508delCFTR-HRP cells; for Maximum % activity (with co-corrector): with co-corrector (2 μM); for Maximum % activity (with co-corrector) / Maximum % activity (without co-corrector): normalized to on-plate positive control, highest concentration 20 μM. Put shortly:
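Surface F508delCFTR-HRP was read by luminol luminescence after 18–24 h compound exposure at 33 °C, without or with 2 μM co-corrector. Doses were eight 3-fold steps from 20 μM, in doxycycline-induced (0.5 μg/mL, 72 h) CFBE41o- cells. % activity was scaled to the on-plate 2 μM positive control minus DMSO; EC50 came from a variable-slope sigmoid fit.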

Setting [1] is: test compound without co-corrector, 18-24 hours at 33° C., read-out: EC50 (without co-corrector).
Setting [2] is: with co-corrector (2 μM of 3-[(2R,4R)-4-({[1-(2,2-difluoro-1,3-benzodioxol-5-yl)cyclopropyl]carbonyl}amino)-7-methoxy-3,4-dihydro-2H-chromen-2-yl]benzoic acid), read-out: EC50 (with co-corrector).

Like-named read-outs stand apart in the source and are kept apart here.

Usually EC50 stands for the concentration that produces a half-maximal response.

T1 sequence (P13569 with tags, fused parts or gaps DEL508-508): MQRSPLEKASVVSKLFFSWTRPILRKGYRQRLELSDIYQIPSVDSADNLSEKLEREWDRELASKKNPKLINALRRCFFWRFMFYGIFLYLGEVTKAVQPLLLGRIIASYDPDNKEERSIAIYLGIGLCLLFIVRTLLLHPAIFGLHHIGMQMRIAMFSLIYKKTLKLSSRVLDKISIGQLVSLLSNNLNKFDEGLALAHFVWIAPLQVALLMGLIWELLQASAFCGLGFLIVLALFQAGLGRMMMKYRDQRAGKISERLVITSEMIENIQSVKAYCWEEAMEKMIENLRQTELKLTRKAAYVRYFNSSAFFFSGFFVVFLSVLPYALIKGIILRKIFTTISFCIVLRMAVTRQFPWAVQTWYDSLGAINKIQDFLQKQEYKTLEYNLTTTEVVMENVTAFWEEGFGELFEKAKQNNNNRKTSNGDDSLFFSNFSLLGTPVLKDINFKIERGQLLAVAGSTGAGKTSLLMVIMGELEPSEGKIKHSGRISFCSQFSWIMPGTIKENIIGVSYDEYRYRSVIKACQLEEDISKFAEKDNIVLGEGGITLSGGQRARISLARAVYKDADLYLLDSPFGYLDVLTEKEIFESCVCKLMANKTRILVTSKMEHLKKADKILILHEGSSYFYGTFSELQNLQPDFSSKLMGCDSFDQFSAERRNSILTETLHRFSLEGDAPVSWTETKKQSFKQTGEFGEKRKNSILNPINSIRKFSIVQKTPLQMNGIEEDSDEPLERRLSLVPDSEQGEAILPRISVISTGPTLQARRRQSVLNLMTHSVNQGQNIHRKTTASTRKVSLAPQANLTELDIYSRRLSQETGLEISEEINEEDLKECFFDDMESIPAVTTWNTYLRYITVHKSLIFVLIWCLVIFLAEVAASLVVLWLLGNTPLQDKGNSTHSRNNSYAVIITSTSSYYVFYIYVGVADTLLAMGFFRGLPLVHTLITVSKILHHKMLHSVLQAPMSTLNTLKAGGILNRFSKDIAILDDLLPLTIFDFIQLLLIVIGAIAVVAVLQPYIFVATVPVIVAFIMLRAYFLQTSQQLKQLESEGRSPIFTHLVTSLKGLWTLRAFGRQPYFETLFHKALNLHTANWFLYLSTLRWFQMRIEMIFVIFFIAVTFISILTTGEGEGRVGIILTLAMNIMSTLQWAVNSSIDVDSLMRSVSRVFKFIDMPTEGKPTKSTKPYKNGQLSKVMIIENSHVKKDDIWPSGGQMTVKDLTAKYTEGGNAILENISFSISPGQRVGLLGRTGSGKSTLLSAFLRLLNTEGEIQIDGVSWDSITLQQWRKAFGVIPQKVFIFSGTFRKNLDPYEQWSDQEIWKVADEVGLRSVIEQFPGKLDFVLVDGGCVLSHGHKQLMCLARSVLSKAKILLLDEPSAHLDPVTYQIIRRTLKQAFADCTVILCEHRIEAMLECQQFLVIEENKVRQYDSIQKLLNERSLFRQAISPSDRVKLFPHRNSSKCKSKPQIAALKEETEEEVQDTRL

Consider `COc1ncc(-c2ccc(C)cc2F)cc1CO[C@H]1[C@H](C(C)(C)C)[C@@H](C(=O)O)N(C(=O)OC(C)C)[C@H]1c1ccccc1` [Example 65, (2S,3R,4S,5S)-3-tert-butyl-4-{[5-(2-fluoro-4-methylphenyl)-2-methoxypyridin-3-yl]methoxy}-5-phenyl-1-{[(propan-2-yl)oxy]carbonyl}pyrrolidine-2-carboxylic acid], for which the “Maximum % activity (with co-corrector)” value is given as “+++ (≥350)” and the “Maximum % activity (without co-corrector)” value was “+ (<100)”. Also, under setting [1], the EC50 is less than 1 µM. The EC50 under setting [2] is less than 1 µM.
Take `COc1ncc(-c2ccccc2F)cc1CO[C@H]1[C@H](C(C)(C)C)[C@@H](C(=O)O)N(C(=O)OC(C)C)[C@H]1c1ccccc1` [Example 66, (2S,3R,4S,5S)-3-tert-butyl-4-{[5-(2-fluorophenyl)-2-methoxypyridin-3-yl]methoxy}-5-phenyl-1-{[(propan-2-yl)oxy]carbonyl}pyrrolidine-2-carboxylic acid]: the “Maximum % activity (with co-corrector)” value was “+++ (≥350)” and the “Maximum % activity (without co-corrector)” value was “+ (<100)”. Under setting [1], the EC50 was less than 1 µM. Moreover, the EC50 under setting [2] lay within 1 to 10 µM.
With `COc1ncc(-c2ccc(F)cc2C)cc1CO[C@H]1[C@H](C(C)(C)C)[C@@H](C(=O)O)N(C(=O)OC(C)C)[C@H]1c1ccccc1` [Example 67, (2S,3R,4S,5S)-3-tert-butyl-4-{[5-(4-fluoro-2-methylphenyl)-2-methoxypyridin-3-yl]methoxy}-5-phenyl-1-{[(propan-2-yl)oxy]carbonyl}pyrrolidine-2-carboxylic acid], the “Maximum % activity (with co-corrector)” value is “+++ (≥350)” and the “Maximum % activity (without co-corrector)” value is “+ (<100)”. In addition, the concentration for a half-maximal effect (EC50) under setting [1] is less than 1 µM. Besides, the EC50 under setting [2] is less than 1 µM.
On to `COc1ncc(-c2ccc(F)cc2F)cc1CO[C@H]1[C@H](C(C)(C)C)[C@@H](C(=O)O)N(C(=O)OC(C)C)[C@H]1c1ccccc1` [Example 68, (2S,3R,4S,5S)-3-tert-butyl-4-{[5-(2,4-difluorophenyl)-2-methoxypyridin-3-yl]methoxy}-5-phenyl-1-{[(propan-2-yl)oxy]carbonyl}pyrrolidine-2-carboxylic acid], for which the “Maximum % activity (with co-corrector)” value was “+++ (≥350)” and the “Maximum % activity (without co-corrector)” value is reported as “+ (<100)”. For the same molecule, the EC50 under setting [1] was less than 1 µM. Further, under setting [2], the EC50 lay within 1 to 10 µM.
For `COc1ncc(C2=CCOCC2)cc1CO[C@H]1[C@H](C(C)(C)C)[C@@H](C(=O)O)N(C(=O)OC(C)C)[C@H]1c1ccccc1` [Example 69, (2S,3R,4S,5S)-3-tert-butyl-4-{[5-(3,6-dihydro-2H-pyran-4-yl)-2-methoxypyridin-3-yl]methoxy}-5-phenyl-1-{[(propan-2-yl)oxy]carbonyl}pyrrolidine-2-carboxylic acid], the “Maximum % activity (with co-corrector)” value was “++ (≥150 and <350)”; the “Maximum % activity (without co-corrector)” value is listed as “+ (<100)”. In addition, under setting [1], the EC50 is 1 to 10 µM. In addition, the EC50 under setting [2] was in the range of 1 to 10 µM.
As to `COc1cccc(-c2cnc(OC)c(CO[C@H]3[C@H](C(C)(C)C)[C@@H](C(=O)O)N(C(=O)OC(C)C)[C@H]3c3ccccc3)c2)c1` [Example 70, (2S,3R,4S,5S)-3-tert-butyl-4-{[2-methoxy-5-(3-methoxyphenyl)pyridin-3-yl]methoxy}-5-phenyl-1-{[(propan-2-yl)oxy]carbonyl}pyrrolidine-2-carboxylic acid], the “Maximum % activity (with co-corrector)” value is “++ (≥150 and <350)”; the “Maximum % activity (without co-corrector)” value is recorded as “+ (<100)”. Besides, under setting [1], the EC50 lay in the range of 1 to 10 µM. Moreover, the EC50 under setting [2] lay within 1 to 10 µM.
With `COc1ncc(-c2ccc(C)cc2)cc1CO[C@H]1[C@H](C(C)(C)C)[C@@H](C(=O)O)N(C(=O)OC(C)C)[C@H]1c1ccccc1` [Example 71, (2S,3R,4S,5S)-3-tert-butyl-4-{[2-methoxy-5-(4-methylphenyl)pyridin-3-yl]methoxy}-5-phenyl-1-{[(propan-2-yl)oxy]carbonyl}pyrrolidine-2-carboxylic acid], the “Maximum % activity (with co-corrector)” value was “+++ (≥350)” and the “Maximum % activity (without co-corrector)” value was “+ (<100)”. The EC50 under setting [1] was in the range of 1 to 10 µM. Also, the EC50 under setting [2] lay in the range of 1 to 10 µM.
`COc1nc(C(C)(C)C)ccc1CO[C@H]1[C@H](C(C)(C)C)[C@@H](C(=O)O)N(C(=O)OC(C)C)[C@H]1c1ccccc1` [Example 72, (2S,3R,4S,5S)-3-tert-butyl-4-[(6-tert-butyl-2-methoxypyridin-3-yl)methoxy]-5-phenyl-1-{[(propan-2-yl)oxy]carbonyl}pyrrolidine-2-carboxylic acid]: the “Maximum % activity (with co-corrector)” value is on record as “+++ (≥350)” and the “Maximum % activity (without co-corrector)” value is given as “+ (<100)”. Under setting [1], the EC50 was 1 to 10 µM. Besides, the EC50 under setting [2] was in the range of 1 to 10 µM.
Take `COc1ncc(C(F)(F)F)cc1CO[C@H]1[C@H](C(C)(C)C)[C@@H](C(=O)O)N(C(=O)OC(C)C)[C@H]1c1ccccc1F` [Example 73, (2S,3R,4S,5S)-3-tert-butyl-5-(2-fluorophenyl)-4-{[2-methoxy-5-(trifluoromethyl)pyridin-3-yl]methoxy}-1-{[(propan-2-yl)oxy]carbonyl}pyrrolidine-2-carboxylic acid]: the “Maximum % activity (with co-corrector)” value is listed as “+++ (≥350)”; the “Maximum % activity (without co-corrector)” value was “++ (≥100 and <200)”. Also, the EC50 under setting [1] lay in the range of 1 to 10 µM. For the same molecule, the EC50 under setting [2] was less than 1 µM.
Regarding `COc1ncc(C(C)(C)C)cc1CO[C@H]1[C@H](C(C)(C)C)[C@@H](C(=O)O)N(C(=O)OC(C)C)[C@H]1c1ccccc1F` [Example 74, (2S,3R,4S,5S)-3-tert-butyl-4-[(5-tert-butyl-2-methoxypyridin-3-yl)methoxy]-5-(2-fluorophenyl)-1-{[(propan-2-yl)oxy]carbonyl}pyrrolidine-2-carboxylic acid], the “Maximum % activity (with co-corrector)” value is reported as “+++ (≥350)”; the “Maximum % activity (without co-corrector)” value was “++ (≥100 and <200)”. In addition, the EC50 under setting [1] was in the range of 1 to 10 µM. Further, the EC50 under setting [2] lay within 1 to 10 µM.
Regarding `COc1ncc(C(C)(C)C)cc1CO[C@@H]1[C@H](C(C)(C)C)[C@@H](C(=O)O)N(C(=O)OC(C)C)[C@H]1c1ccccc1F` [Example 75, (2S,3R,4R,5S)-3-tert-butyl-4-[(5-tert-butyl-2-methoxypyridin-3-yl)methoxy]-5-(2-fluorophenyl)-1-{[(propan-2-yl)oxy]carbonyl}pyrrolidine-2-carboxylic acid], the “Maximum % activity (with co-corrector)” value is listed as “+ (<150)” and the “Maximum % activity (without co-corrector)” value is “+ (<100)”. For the same molecule, the EC50 under setting [1] was more than 10 µM. For the same molecule, the EC50 under setting [2] was more than 10 µM.
Consider `COc1ncc(Br)cc1CO[C@H]1[C@H](C(C)(C)C)[C@@H](C(=O)O)N(C(=O)OC(C)C)[C@H]1c1ccccc1F` [Example 76, (2S,3R,4S,5S)-4-[(5-bromo-2-methoxypyridin-3-yl)methoxy]-3-tert-butyl-5-(2-fluorophenyl)-1-{[(propan-2-yl)oxy]carbonyl}pyrrolidine-2-carboxylic acid], for which the “Maximum % activity (with co-corrector)” value is given as “+++ (≥350)”; the “Maximum % activity (without co-corrector)” value was “++ (≥100 and <200)”. Also, under setting [1], the EC50 lay in the range of 1 to 10 µM. Further, the concentration giving a half-maximal response (EC50) under setting [2] was 1 to 10 µM.
`COc1ncc(C2CCC2)cc1CO[C@H]1[C@H](C(C)(C)C)[C@@H](C(=O)O)N(C(=O)OC(C)C)[C@H]1c1ccccc1F` [Example 77, (2S,3R,4S,5S)-3-tert-butyl-4-[(5-cyclobutyl-2-methoxypyridin-3-yl)methoxy]-5-(2-fluorophenyl)-1-{[(propan-2-yl)oxy]carbonyl}pyrrolidine-2-carboxylic acid]: the “Maximum % activity (with co-corrector)” value was “+++ (≥350)”; the “Maximum % activity (without co-corrector)” value was “++ (≥100 and <200)”. In addition, under setting [1], the EC50 fell in the range of 1 to 10 µM. Also, under setting [2], the EC50 was 1 to 10 µM.
In the case of `COc1ccc(C(F)(F)F)cc1CO[C@H]1[C@H](C(C)(C)C)[C@@H](C(=O)O)N(C(=O)OC(C)C)[C@H]1c1cccnc1OC(C)C` [Example 78, (2S,3R,4S,5S)-3-tert-butyl-4-{[2-methoxy-5-(trifluoromethyl)phenyl]methoxy}-1-{[(propan-2-yl)oxy]carbonyl}-5-{2-[(propan-2-yl)oxy]pyridin-3-yl}pyrrolidine-2-carboxylic acid], the “Maximum % activity (with co-corrector)” value was “+++ (≥350)”; the “Maximum % activity (without co-corrector)” value was “++ (≥100 and <200)”. Moreover, the EC50 under setting [1] was 1 to 10 µM. For the same molecule, the EC50 under setting [2] lay in the range of 1 to 10 µM.
Consider `COc1ncc(C(F)(F)F)cc1CO[C@H]1[C@H](C(C)(C)C)[C@@H](C(=O)O)N(C(=O)OC(C)C)[C@H]1c1cccc(Cl)c1` [Example 79, (2S,3R,4S,5S)-3-tert-butyl-5-(3-chlorophenyl)-4-{[2-methoxy-5-(trifluoromethyl)pyridin-3-yl]methoxy}-1-{[(propan-2-yl)oxy]carbonyl}pyrrolidine-2-carboxylic acid], for which the “Maximum % activity (with co-corrector)” value was “++ (≥150 and <350)”; the “Maximum % activity (without co-corrector)” value was “+ (<100)”. For the same molecule, the EC50 under setting [1] was 1 to 10 µM. Under setting [2], the EC50 lay in the range of 1 to 10 µM.
`COc1ncc(C(C)(C)C)cc1CO[C@H]1[C@H](C(C)(C)C)[C@@H](C(=O)O)N(C(=O)OC(C)C)[C@H]1c1cccc(Cl)c1` [Example 80, (2S,3R,4S,5S)-3-tert-butyl-4-[(5-tert-butyl-2-methoxypyridin-3-yl)methoxy]-5-(3-chlorophenyl)-1-{[(propan-2-yl)oxy]carbonyl}pyrrolidine-2-carboxylic acid]: the “Maximum % activity (with co-corrector)” value was “++ (≥150 and <350)”; the “Maximum % activity (without co-corrector)” value is given as “+ (<100)”. Moreover, the EC50 under setting [1] lay in the range of 1 to 10 µM. The EC50 under setting [2] lay within 1 to 10 µM.

For the origin of these results see patent US10399940B2, “Substituted pyrrolidines and methods of use” (AbbVie S.à.r.l., priority 2016, dated 2019).
